Data from patent US20220017483A1, “AMINOPYRIDINE COMPOUND, PREPARATION METHOD THEREFOR AND USE THEREOF” (SICHUAN-KELUN-BIOTECH BIOPHARMACEUTICAL CO., LTD, priority 2018, published 2022).
Read-outs that look alike come from different tables or passages of the source.

How the values were obtained:
[1] = molecular target: T1, A1 receptor cell membrane (human origin) (Homo sapiens, UniProt P30542); experiment: Competitive inhibition constant (Ki) for adenosine A1 receptor, [3H]-DPCPX radioligand binding; conditions: [3H]-DPCPX 1.0 nM
T1 construct: purchased PerkinElmer ES-010-M400UA
T1 sequence (P30542 1-326): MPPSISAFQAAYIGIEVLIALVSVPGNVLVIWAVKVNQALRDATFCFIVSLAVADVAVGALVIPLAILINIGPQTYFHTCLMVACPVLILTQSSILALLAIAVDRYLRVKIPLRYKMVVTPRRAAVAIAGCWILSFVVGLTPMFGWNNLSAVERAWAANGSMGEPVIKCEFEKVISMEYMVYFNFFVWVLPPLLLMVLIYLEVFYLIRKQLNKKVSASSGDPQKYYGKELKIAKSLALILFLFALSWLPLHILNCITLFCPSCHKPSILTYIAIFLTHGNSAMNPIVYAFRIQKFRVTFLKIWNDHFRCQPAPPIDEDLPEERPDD
Method: Experimental Example 1: Determination of the Competitive Inhibition Constant (Ki) for Adenosine A1 and A2a Receptors
[^3H]-DPCPX: PerkinElmer, NET974250UC
A1 receptor cell membrane (human origin): PerkinElmer, ES-010-M400UA
A1 test buffer: 25 mM HEPES, 5 mM MgCl2, 1 mM CaCl2, 100 mM NaCl, pH7.4
A1 washing buffer: 25 mM HEPES, 5 mM MgCl2, 1 mM CaCl2, 100 mM NaCl, pH7.4
(§1) The A1 receptor cell membrane was diluted to 0.025 μg/μl with the A1 test buffer and the A2a receptor cell membrane was diluted to 0.05 μg/μl with the A2a test buffer to obtain an A1 receptor cell membrane dilution and an A2a receptor cell membrane dilution.
(§2) The tested compound and CGS15943 were gradiently diluted with DMSO. 1 μl test compound, high-value control (0.5% DMSO), low-value control (1000 nM CGS15943) were added to a 96-well plate, wherein each well was added with 100 μl A1 receptor cell membrane dilution (containing 2.5 μg cell membrane) to obtain an A1 detection plate. Through the same steps, 100 μl A2a receptor cell membrane dilution (containing 5.0 μg cell membrane) was added to each well of a 96-well plate to obtain an A2a detection plate.
100 μl of radioisotope-labelled ligand [^3H]-DPCPX (diluted in A1 test buffer, working concentration 1.0 nM) was added to the A1 detection plate, and 100 μl of radioisotope-labelled ligand [^3H]-CGS-21680 (diluted in A2a test buffer, working concentration 6.0 nM) was added to the A2a detection plate. The A1 and A2a detection plates were sealed with a tap, and incubated at room temperature for 1 h and 2 h, respectively.
(§3) Unifilter-96 GF/C filter plate was prepared. The Unifilter-96 GF/C filter plate was added with 50 μl 0.3% PEI in each well, and incubated at room temperature for no less than 0.5 h.
(§4) After the incubation, the reaction solutions in the A1 detection plate and the A2a detection plate were transferred to two Unifilter-96 GF/C filter plates. The filter plates were washed with the corresponding pre-cooled washing buffers, then oven dried. After sealing the bottom of the filter plates, 50 μl of Microscint 20 cocktail scintillation fluid was added. After sealing the top of the filter plates, the plates were read in the counter MicroBeta2 Reader.
(§5) Data analysis: The inhibition rate was calculated according to the following formula:
(§6) Inhibition rate %=100−(the signal value of the tested wells−the signal average of the low-value control)/(the signal average of the high-value control−the signal average of the low-value control)*100.
(§7) IC50 was fitted by EXCEL XLfit. The competitive inhibition constant (Ki) was calculated according to the formula: Ki=IC50/(1+the concentration of the isotope-labelled ligands/Kd); Kd is the dissociation constant of the isotope-labeled ligands.

[2] = Pharmacokinetics in rats, intravenous injection (IV); assay type: in vivo; conditions: male, SD, rat, 1 mg/kg, plasma
Method: (§8) Experimental Example 2: Pharmacokinetics (PK) and Brain Tissue Distribution Study in Rats
(§9) The compounds of the present invention and control compound 2 were administered to male SD rats by intravenous injection (IV) and intragastric administration (PO) respectively to study the pharmacokinetic characteristics.
(§10) The compounds of the present invention and control compound 2
(§11) synthesized according to the prior art process) were administered by IV and PO. IV and PO dosages were 1 mg/kg and 5 mg/kg, respectively. The vehicle for the IV administration of the compounds of the present invention was a mixture of 5% DMSO:5% Solutol (polyethylene glycol-15 hydroxystearate):90% physiological saline; and the vehicle for the IV administration of control compound 2 was a mixture of 10% DMSO:10% Solutol (polyethylene glycol-15 hydroxystearate):80% physiological saline. The vehicle for the PO administration of the compounds was 0.5% MC (sodium methylcellulose). Blood was collected before IV administration (0 h), and at time points of 0.083, 0.25, 0.5, 1, 2, 4, 6, 8, 24 h or longer (for example, adding time points of 32 and 48 h) after IV administration; and blood was collected before PO administration (0 h), and at time points of 0.25, 0.5, 1, 2, 4, 6, 8, 24 h or longer (for example, adding time points of 32 and 48 h) after PO administration. EDTA.K2 was used for anticoagulation of the blood, and a plasma sample was obtained after centrifugation. Brain tissue homogenates were taken at 0.25, 0.5, 1, and 8 hours after PO administration (3 animals for each time point). The plasma samples and brain tissue homogenate samples were stored at −80° C. Plasma samples and brain tissue homogenates were subjected to analysis by LC-MS/MS, after protein precipitation. The pharmacokinetic parameters were calculated by using non-compartmental model with WinNonlin 6.3 software.

[3] = Pharmacokinetics and brain tissue distribution in rats, intragastric administration (PO); assay type: in vivo, male SD rats; conditions: rat; for bioavailability / AUC(0-t): male, SD, plasma; for bioavailability: po, orally administered 5 mg/kg compared to intravenous 1 mg/kg; for AUC(0-t) / Plasma AUClast/Brain AUClast / AUClast (brain) / capability to penetrate the blood-brain barrier / exposure to brain tissue (in words): PO, 5 mg/kg; for AUC(0-t): read-out: AUClast (plasma); for AUClast (brain): brain tissue homogenate
Method: as §8, §9, §10, §11

[4] = molecular target: T2, A2a receptor cell membrane (human origin) (Homo sapiens, UniProt P29274); experiment: Competitive inhibition constant (Ki) for adenosine A2a receptor, [3H]-CGS-21680 radioligand binding; conditions: for Ki(A1)/Ki(A2a): selectivity ratio A1 over A2a
T2 construct: purchased PerkinElmer RBHA2AM400UA
T2 sequence (P29274 whole entry): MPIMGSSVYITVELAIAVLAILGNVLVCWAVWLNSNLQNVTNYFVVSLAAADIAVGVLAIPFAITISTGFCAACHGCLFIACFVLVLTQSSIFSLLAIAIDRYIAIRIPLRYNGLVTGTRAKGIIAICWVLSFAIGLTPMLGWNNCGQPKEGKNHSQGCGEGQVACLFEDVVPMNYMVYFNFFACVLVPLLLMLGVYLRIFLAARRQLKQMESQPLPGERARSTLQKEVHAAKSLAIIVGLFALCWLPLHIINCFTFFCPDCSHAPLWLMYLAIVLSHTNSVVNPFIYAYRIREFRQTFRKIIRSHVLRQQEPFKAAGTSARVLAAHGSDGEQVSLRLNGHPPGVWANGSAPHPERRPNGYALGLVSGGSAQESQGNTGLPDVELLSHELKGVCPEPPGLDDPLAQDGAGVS
Method: A2a receptor cell membrane (human origin): PerkinElmer, RBHA2AM400UA
A2a test buffer: 50 mM Tris-HCl, 10 mM MgCl2, 1 mM EDTA, pH7.4
as §1, §2
The A1 and A2a detection plates were sealed with a tap, and incubated at room temperature for 1 h and 2 h, respectively.
as §3, §4, §5, §6, §7

[5] = human A2a receptor cell membrane, [3H]-CGS-21680 6.0 nM, read-out: Ki(A2a)

Row | Structure (SMILES) | Ki [1] [nM] | AUC(0-t) [2] [ng·h/mL] | Cmax [2] [ng/mL] | bioavailability [3] [%] | AUC(0-t) [3] [ng·h/mL] | Plasma AUClast/Brain AUClast [3] | AUClast (brain) [3] | Ki [4, 5] [nM] | Ki(A1)/Ki(A2a) [4] | capability to penetrate the blood-brain barrier / exposure to brain tissue (in words) [3] | Ki [4] [nM]
1 | Cc1ncnc2ccc(-c3cc(C(N)=O)c(N)nc3-c3ccc(F)cc3)cc12 [Compound 6, 2-amino-6-(4-fluorophenyl)-5-(4-methylquinazolin-6-yl)nicotinamide] | 2190 | 6660 | 1250 | 73.9 | 24700 | 73/1 | 337 (h*ng/g, | 3.4 | 644.6 | – | –
2 | CNC(=O)Cn1cc(-c2cc(-c3ccc4ncnc(C)c4c3)c(-c3ccc(F)cc3)nc2N)cn1 [Compound 19, 2-(4-(2-amino-6-(4-fluorophenyl)-5-(4-methylquinazolin-6-yl)-pyridin-3-yl)-1H-pyrazol-1-yl)-N-methylacetamide] | 513 | 3940 | 2960 | 95.2 | 18800 | 776/1 | 24.2 (h*ng/g, | 9.9 | 51.8 | – | –
3 | Cc1ncnc2ccc(-c3cc(-c4cnn(CCC(N)=O)c4)c(N)nc3-c3ccc(F)cc3)cc12 [Compound 20, 3-(4-(2-amino-6-(4-fluorophenyl)-5-(4-methylquinazolin-6-yl)-pyridin-3-yl)-1H-pyrazol-1-yl)propionamide] | 963 | 2530 | 3330 | – | 1900 | – | undetectable | – | 68.8 | only very low exposure to brain tissue | 14
4 | Cc1ncnc2ccc(-c3cc(-c4cnn(CC(C)(C)O)c4)c(N)nc3-c3ccc(F)cc3)cc12 [Compound 21, 1-(4-(2-amino-6-(4-fluorophenyl)-5-(4-methylquinazolin-6-yl)-pyridin-3-yl)-1H-pyrazol-1-yl)-2-methylpropan-2-ol] | 1420 | 2340 | 1340 | 68.5 | 8010 | 331/1 | 24.2 (h*ng/g, | 13.2 | 108.0 | – | –
5 | Cc1ncnc2ccc(-c3nnc(N)nc3-c3ccc(F)cc3)cc12 [Control compound 2, reference compound] | – | 518 | 913 | 46.5 | 1200 | – | 1013 (h*ng/g, | – | – | significantly stronger | –
